According to patent US12629345B2, “Methods, compositions, and devices for drug / live cell microarrays” (Pathak Holdings LLC, priority 2013, dated 2026):
Entries after “also recorded” stand apart in the source; their conditions may differ. Where a name gives a salt, the structure may show the parent alone. Blank lines part the entries; values can stand above or below the molecule they belong to.

Experiments:
Assay type in all cases: physicochemical
[1] = Bupivacaine base release from PLGA microimplants formed with oscillating needle in bovine pericardium; conditions: PDLG 5002 in DMSO infused by oscillating needle, PBS 37 degree C.
Description: Oscillating needle such as tattoo needle may be used to create cavities in the tissue or skin. A commercial tattoo machine as described in the related application (U.S. Pat. No. 9,072,678, cited herein for reference only) is used. The 500-1000 micron size tattoo needle is used and the oscillation frequency was 10 to 12000 oscillations per minute. About 1 square centimeter area was treated with the tattoo needle for 1 minute. The pores created by the tattoo machine repeated needle insertion were used to fill the injectable composition such PLGA solutions with the drug as described before. Alternatively, polymer solution is first applied on the tissue surface to form a solution layer and then the tattoo needle is used to create holes through the solution. The needle goes in and out of the tissue surface and carries the solution with it inside the cavity created. The deposited solution inside the cavity is precipitated by the tissue fluids and the precipitated polymer releases the drug in a sustained manner. Additional information about tattoo based methods can be found on related applications cited herein for reference only. […] The concentration of bupivacaine in the eluted samples is monitored using UV spectrophotometer. […]

[2] = Bupivacaine hydrochloride release from in situ PLGA implant with and without magnesium carbonate filler; conditions: FIG. 21B
Description: 100.2 mg PDLG 5002 polymer is dissolved in 1.0 ml DMSO. 10 microliters of methylene blue stock solution (10 mg methylene blue in 2 ml DMSO) is added to the polymer solution as a colorant. Infusion solutions are prepared using the following method: 15.2 mg bupivacaine hydrochloride and 0.50 ml polymer solution are mixed until drug is completely dissolved. 50 mg magnesium carbonate powder (fine powder sieved to collect fraction below 300 microns in size) is added as a biocompatible and biodegradable filler in the drug solution and the mixture is vigorously vortexed for 5 minutes. The magnesium carbonate suspension is infused/tattooed using an oscillating needle in 1 cm square area of sheep skin tissue. Excess solution from the tattooed surface is wiped off. The light blue tattoo with magnesium particles is clearly seen the by unaided naked eye.
Similarly, a polymer solution without magnesium carbonate is prepared and infused/tattooed in the sheep skin tissue as above. The infused tissue sample is cut and used in controlled release experiment.
The cut samples are placed in 3 mL of PBS (pH 7.4). The drug eluted PBS is collected at several time points. Fresh PBS is added to replace the eluted PBS solution. The collected PBS is analyzed using a UV spectrophotometer to determine the drug concentration.

[3] = Rifampin release from encapsulated microspheres in microimplant array in sheep skin tissue; conditions: PLGA microspheres in glycerol, 33 MP array, PBS 37 degree C., FIG. 14
Description: Rifampin containing red/yellow microspheres are prepared using spray drying method or prepared according to Example 3. Microspheres are prepared using PLGA polymer (PDLG 5002 from Purac) polymer with 20 percent rifampin loading relative to the polymer plus drug weight. Control PLGA microspheres without rifampin are prepared under identical spry drying conditions. 4.9 mg of rifampin encapsulated microspheres are suspended in 0.25 ml glycerol. One/two drops of the suspension are added on the 2 by 2 cm glutaraldehyde fixed sheep tissue. The 33 MP microarray needles are pressed on the tissue via rifampin suspension to create 3 by 3 micro array cavities and infuse the cavities with the rifampin microspheres. The procedure is repeated 9 times on the same tissue at different locations to create 135 micro cavities loaded with rifampin microspheres. The excess suspension is wiped of using tissue paper. No loosely adherent microspheres in the tissue are noticed. The glycerol in the suspension is dissipated in the tissue leaving behind the microspheres in the cavities. […] The rifampin treated tissue and control tissue are incubated at 37 degree C. in 3 ml PBS and rifampin in treated and control samples is monitored at various time points. Rifampin concentration in the eluted samples is analyzed using UV-VIS spectrophotometer (wavelength 474 nm).

sustained release of bupivacaine base from in situ formed implant ([1]; FIG. 13): several days
SMILES: CCCCN1CCCCC1C(=O)Nc1c(C)cccc1C (centres unmarked) [bupivacaine base, bupivacaine]
sustained release of bupivacaine base from in situ formed implant ([1]; FIG. 13, listed as bupivacaine): released in a sustained manner; also recorded: few days

duration of release of bupivacaine hydrochloride ([2]; PLGA array implant without magnesium carbonate): one to two days
SMILES: CCCCN1CCCCC1C(=O)Nc1c(C)cccc1C (centres unmarked) [bupivacaine hydrochloride]
duration of release of bupivacaine hydrochloride ([2]; PLGA array implant with magnesium carbonate filler, hydrochloride): several days; also recorded: much longer sustained release

release of rifampin from microspheres in microimplant array [3]: sustained release
SMILES: CO[C@H]1/C=C/O[C@@]2(C)Oc3c(C)c(O)c4c(O)c(c(/C=N/N5CCN(C)CC5)c(O)c4c3C2=O)NC(=O)/C(C)=C\C=C\[C@H](C)[C@H](O)[C@@H](C)[C@@H](O)[C@@H](C)[C@H](OC(C)=O)[C@@H]1C [rifampin]
